Assay results taken from patent US6245968A, “Mutated hydroxyphenylpyruvate dioxygenase, DNA sequence and isolation of plants which contain such a gene and which are tolerant to herbicides” (Aventis CropScience S.A., priority 1997, dated 2001).
pIC50: −log10 of the molar value.

How the values were obtained:
O=C(O)C(=O)Cc1ccc(O)cc1 [1] = assay: HPPD activity by HPLC determination of homogentisate (Km, IC50); assay type: biochemical; conditions: other: Km of the HPPD for HPP, crude extract, 30° C., pH7.5, pH 7.5
Description: (§1) Glycine318, replaced with alanine, designated SyA318, similar to PfA334 (in Example 3).
(§2) The mutants SyN318 and SyA318 which were obtained in the previous example were examined, in comparison with the unmutated HPPD of Synechocystis, for the biochemical characteristics Km and IC50 with regard to an HPPD inhibitor, i.e. 2-cyano-3-cyclopropyl-1-(2-methylsulphonyl-4-trifluoromethylphenyl)propane-1,3-dione. This analysis was carried out using the following protocol:
(§3) The HPPD activity is measured by determining, by means of high performance liquid chromatography (HPLC), the quantity of product, i.e. homogentisate,which is formed after incubating the enzyme with its substrate HPP. Injecting different amounts of homogentisate, varying from 12 to 48 nmoles, into the column enables the retention time of the homogentisate to be determined and the peak area to be correlated with the quantity of product injected.
(§4) The activity measurements are carried out in a final volume of […] containing: 12.6 mM ascorbate, […] iron (FeH8N2O8S2,6H2O) (previously prepared in 0.1 M tris-acetate buffer, pH6), […] of crude extract containing the HPPD, […] HPP and 0.1 M tris-acetate buffer, pH7.5. The enzyme is firstly incubated with the iron at 30° C. for 1 min and then with the ascorbate at 30° C. for 5 min before the reaction is started by adding the substrate, i.e. the HPP. The incubation is continued at 30° C. for 1 min 30sec and the reaction is then stopped by adding […] of 20% perchloric acid. The proteins are then removed by centrifuging for 5min at 15,300 rpm and at 20° C. The supernatant is recovered. The quantity of homogentisate formed is then analysed by injecting […] of assay mixture into a Pico TagC18 column which is connected to the HPLC system. […] On leaving the column, the homogentisate is detected by measuring absorbance at 288 nm. The quantity of product formed is defined by the area of the peak on the chromatogram.
(§5) The Km of the HPPD for HPP is determined by measuring the initial velocity of the reaction using different concentrations of HPP. […]

[2] = target: T1, Synechocystis PCC6803 HPPD, unmutated (Synechocystis sp., UniProt Q55810); assay: Colorimetric screening test (browning of medium) in E. coli; assay type: cell-based; conditions: 7 mM inhibitor, 1 mM IPTG
T1 construct: expressed in transfected cells; host or cells: E. coli JM105, vector ptrc-99 A, IPTG-induced
T1 sequence (Q55810 1-339): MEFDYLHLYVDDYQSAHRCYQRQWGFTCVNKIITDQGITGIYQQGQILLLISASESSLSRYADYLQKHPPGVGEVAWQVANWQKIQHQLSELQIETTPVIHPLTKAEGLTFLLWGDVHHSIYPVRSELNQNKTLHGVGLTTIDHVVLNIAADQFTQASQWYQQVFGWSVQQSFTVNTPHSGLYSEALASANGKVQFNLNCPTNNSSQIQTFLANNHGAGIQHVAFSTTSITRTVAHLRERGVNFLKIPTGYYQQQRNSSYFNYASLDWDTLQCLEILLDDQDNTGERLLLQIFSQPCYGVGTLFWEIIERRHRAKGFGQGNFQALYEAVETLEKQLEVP
Description: (§6) A culture medium of the YT broth type, containing 1% agarose (Gibco BRL ultra pure), 5 mM L-tyrosine (Sigma) and the agent for selecting the above mentioned pRPC vector, is dispensed into a 96-well plate at the rate of […] per well. 10 microliter of a culture of E.coli in the exponential phase of growth and harbouring the pRPC vector are dispensed into each well. After 16 hours at 37° C., the wells which only contain the culture medium, or those which have been seeded with an E. coli culture harbouring the vector pKK233-2, are translucent whereas the wells which have been seeded with an E. coli culture harbouring the vector pRPC are coloured brown.
The dioxygenase activity of the Synechocystis HPPD which had thus been obtained was observed by the browning of the medium, using the previously described colorimetric test, with addition of IPTG (isopropyl-b-D-thiogalactopyranoside) at a concentration of 1 mM in order to induce expression of the protein.

[3] = tested on: Pseudomonas fluorescens A32 HPPD, wild type (unmutated, vector pRPC); assay: as above; assay type: cell-based; conditions: 7 mM inhibitor
Description: The vector pRPA (described in application WO96/38567), which contains a genomic DNA fragment and the coding region of the gene for HPPD from Pseudomonas fluorescens A32, was digested with NcoI, purified and then ligated into the expression vector pKK233-2 (Clontech), which itself was digested with NcoI, the site for which forms a unique cloning site in this vector. The orientation of the gene in the resulting pRPC vector which permitted expression under the control of the trc promoter was verified.
as §6, with “brown. […]” for “brown.”

[4] = target: T2, Synechocystis PCC6803 HPPD variant SyN318 (Glycine318 replaced with asparagine) (Synechocystis sp., UniProt Q55810, G318N); assay: HPPD activity by HPLC determination of homogentisate (Km, IC50); assay type: biochemical
T2 construct: made in house; host or cells: E. coli, vector ptrc-99 A; crude extract (JM105 is named for the unmutated plasmid)
Description: (§7) Glycine318, replaced with asparagine, designated SyN318, similar to PfD334 (in Example 3).
as §2, §3, §4, §5

[5] = tested on: Synechocystis PCC6803 HPPD variant SyN318 (Glycine318 replaced with asparagine); assay: as above; assay type: biochemical; conditions: SyN318 versus unmutated Synechocystis HPPD; 10 min
Description: as §7, §2, §3, §4, §5

[6] = target: T3, Synechocystis PCC6803 HPPD variant SyA318 (Glycine318 replaced with alanine) (Synechocystis sp., UniProt Q55810, G318A); assay: as above; assay type: biochemical
T3 construct: made in house; host or cells: E. coli, vector ptrc-99 A; crude extract (JM105 is named for the unmutated plasmid)
Description: as §1, §2, §3, §4, §5

[7] = tested on: Synechocystis PCC6803 HPPD variant SyA318 (Glycine318 replaced with alanine); assay: as above; assay type: biochemical; conditions: SyA318 versus unmutated Synechocystis HPPD; 10 min
Description: as §1, §2, §3, §4, §5

[8] = target: Synechocystis PCC6803 HPPD, native (unmutated) (Synechocystis sp., UniProt Q55810); assay: as above
[9] = tested on: Pseudomonas fluorescens A32 HPPD variant PfL215 (proline 215 replaced by leucine); assay: Colorimetric screening test (browning of medium) in E. coli; assay type: cell-based; conditions: 7 mM inhibitor, score 0 to 10
Description: as §6
(§8) A series of samples was made up with identical culture medium which contained varying concentrations (0 mM to 14 mM) of 2-cyano-3-cyclopropyl-1-(2-methylsulphonyl-4-trifluoromethylphenyl)propane-1,3-dione (EP 0496631), which was dissolved in water and brought to pH7.5. This molecule is a diketonitrile which is recognized as being an effective inhibitor of HPPD activity (Pallett, K. E. et al., 1997. Pestic. Sci. 50, 83-84).

[10] = tested on: Pseudomonas fluorescens A32 HPPD variant PfS334 (Glycine334 replaced by serine); assay: as above; assay type: cell-based; conditions: 7 mM inhibitor, score 0 to 10
Description: as §6, §8

[11] = tested on: Pseudomonas fluorescens A32 HPPD variant PfW334 (Glycine334 replaced by tryptophan); assay: as above; assay type: cell-based; conditions: 7 mM inhibitor, score 0 to 10
Description: as §6, §8

[12] = tested on: Pseudomonas fluorescens A32 HPPD variant PfL333 (Phenylalanine333 replaced by leucine); assay: as above; assay type: cell-based; conditions: 7 mM inhibitor, score 0 to 10
Description: as §6, §8

[13] = tested on: Pseudomonas fluorescens A32 HPPD variant PfP334 (Glycine334 replaced by proline); assay: as above; assay type: cell-based; conditions: 7 mM inhibitor, score 0 to 10
Description: as §6, §8

[14] = tested on: Pseudomonas fluorescens A32 HPPD variant PfD334 (Glycine334 replaced by aspartic acid); assay: as above; assay type: cell-based; conditions: 7 mM inhibitor, score 0 to 10
Description: as §6, §8

[15] = tested on: Pseudomonas fluorescens A32 HPPD variant PfE298 (Gly298 replaced by glutamic acid); assay: as above; assay type: cell-based; conditions: 7 mM inhibitor
Description: as §6, §8

[16] = target: T2, Synechocystis PCC6803 HPPD variant SyN318 (Glycine318 replaced with asparagine); assay: as above; assay type: cell-based; conditions: 7 mM inhibitor
Description: as §6
(§9) With several mutants at position 334 in Pseudomonas fluorescens having been obtained, two site-directed mutagenesis experiments (U.S.E., Pharmacia) were carried out using the oligonucleotides MUGLYA and MUGLYB, which oligonucleotides were intended to replace the glycine at position 318 (of Synechocystis corresponding to the glycine at position 334 of P.fluorescens) either with an asparagine or a serine or with a proline or an alanine (SEQ ID NO 18 and 19).
(§10) One mutant from each experiment was sequenced.
as §7

[17] = target: T3, Synechocystis PCC6803 HPPD variant SyA318 (Glycine318 replaced with alanine); assay: as above; assay type: cell-based; conditions: 7 mM inhibitor
Description: as §6, §9, §10, §1

O=C(O)C(=O)Cc1ccc(O)cc1 [18] = assay: cells, lysate or membranes named; conditions: other: Km of the HPPD for HPP, crude extract, 30° C., pH7.5, pH 7.5
O=C(O)C(=O)Cc1ccc(O)cc1 [19] = assay: HPPD activity by HPLC determination of homogentisate (Km, IC50); assay type: biochemical; conditions: other: Km of the HPPD for HPP, crude extract, 30° C., pH7.5, pH 7.5; remark: listed apart in the source
Description: as §7, §2, §3, §4, §5

Synechocystis PCC6803 HPPD variant SyA318 (Glycine318 replaced with alanine) (Synechocystis sp. PCC 6803 substr. Kazusa; G318A)
Km (O=C(O)C(=O)Cc1ccc(O)cc1 [1]): 320 µM

CS(=O)(=O)c1cc(C(F)(F)F)ccc1C(=O)C(C#N)C(=O)C1CC1 (stereo not drawn) [2-cyano-3-cyclopropyl-1-(2-methylsulphonyl-4-trifluoromethylphenyl)propane-1,3-dione]
browning of the medium in the colorimetric test [2]: no browning of the medium
colour of the bacterial culture in the colorimetric test ([3]; dissolved in water, pH7.5): totally without colour
Activity in the screening test using a selective agent dose of 7 mM ([3]; score 0 to 10): 0
pIC50 [4]: 4.10
ratio of the IC50 of a mutant HPPD to the IC50 of the non-mutant HPPD [5]: 1000
pIC50 [6]: 4.40
ratio of the IC50 of a mutant HPPD to the IC50 of the non-mutant HPPD [7]: 500
pIC50 [8]: 7.10
Activity in the screening test using a selective agent dose of 7 mM [9]: 7
Activity in the screening test using a selective agent dose of 7 mM [10]: 7
Activity in the screening test using a selective agent dose of 7 mM [11]: 6
Activity in the screening test using a selective agent dose of 7 mM [12]: 4
Activity in the screening test using a selective agent dose of 7 mM [13]: 5
Activity in the screening test using a selective agent dose of 7 mM [14]: 1
colour of the screening medium [15]: turn brown
Activity in the screening test using a selective agent dose of 7 mM ([15]; score 0 to 10): 3
browning of the screening medium [16]: caused browning of the screening medium
browning of the screening medium [17]: caused browning of the screening medium

Synechocystis PCC6803 HPPD, native (unmutated) (Synechocystis sp. PCC 6803 substr. Kazusa)
Km (O=C(O)C(=O)Cc1ccc(O)cc1 [18]): 60 µM

Synechocystis PCC6803 HPPD variant SyN318 (Glycine318 replaced with asparagine) (Synechocystis sp. PCC 6803 substr. Kazusa; G318N)
Km (O=C(O)C(=O)Cc1ccc(O)cc1 [19]): 470 µM
